Measured values published in patent US10100061B2, “Oxazepine compound and agricultural/horticultural insecticide containing said compound as active ingredient, and method for using the same” (NIHON NOHYAKU CO., LTD., priority 2014, dated 2018).

Legend:
[1] = tested on: Green Peach Aphid (Myzus Persicae); assay: Test of preventive value against green peach aphid (Test Example 1); assay type: in vivo; conditions: 500 ppm, sprayed over stems and leaves of potted Chinese cabbages, sixth day after spraying
Procedure: Test of Preventive Value Against Green Peach Aphid (Myzus Persicae)
Chinese cabbages were planted in plastic pots, each with a size of 8 cm in diameter and 8 cm in height, after which green peach aphids were propagated and the number of parasitic insects was examined in each pot. An oxazepine compound or salt thereof expressed by General Formula (I) according to the present invention was dispersed in water and the dispersion was diluted to 500 ppm in the form of a reagent, after which the reagent was sprayed over stems and leaves of potted Chinese cabbages and let dry under wind, and the pots were kept in a greenhouse, and on the sixth day after the reagent was sprayed, the number of green peach aphids living parasitically on each Chinese cabbage was examined and the preventive value was calculated based on the formula below, and judgment was made according to the criteria below. Preventive value=100−{(T×Ca)/(Ta×C)}×100 [Mathematical Formula 1] • Ta: Number of parasitic insects inside the treatment area before spraying • T: Number of parasitic insects inside the treatment area after spraying • Ca: Number of parasitic insects inside the non-treatment area before spraying • C: Number of parasitic insects inside the non-treatment area after spraying Judgment Criteria • A - - - Preventive value: 100% • B - - - Preventive value: 99%˜90% • C - - - Preventive value: 89%˜80% • D - - - Preventive value: 79%˜50%

[2] = tested on: Small Brown Planthopper (Laodelphax Striatellus); assay: Test of insecticidal efficacy against small brown planthopper (Test Example 2); assay type: in vivo; conditions: 500 ppm, rice plants soaked 30 seconds, third-instar larvae, eight days after inoculation; criteria same as in Test Example 1
Text: Test of Insecticidal Efficacy Against Small Brown Planthopper (Laodelphax Striatellus)

Compound	Preventive value, judgment [1]	Corrected insect mortality, judgment [2]
N#CCN1C(=O)c2nn(-c3cccnc3)cc2Oc2ccc(F)cc21 [1-17]	A to D	A to D
CN1C(=O)c2nn(-c3cccnc3)cc2Oc2cccc(F)c21 [1-19]	A to D	A to D
CN1C(=O)c2nn(-c3cccnc3)cc2Oc2c(Cl)cccc21 [1-23]	A to D	A to D
O=C1Nc2ccc(Cl)cc2Oc2cn(-c3cccnc3)nc21 [1-26]	A to D	A to D
CN1C(=O)c2nn(-c3cccnc3)cc2Oc2cc(Cl)ccc21 [1-27]	A to D	A to D
C#CCN1C(=O)c2nn(-c3cccnc3)cc2Oc2cc(Cl)ccc21 [1-28]	A to D	A to D
N#CCN1C(=O)c2nn(-c3cccnc3)cc2Oc2cc(Cl)ccc21 [1-29]	A to D	A to D
Cc1ccc2c(c1)Oc1cn(-c3cccnc3)nc1C(=O)N2 [1-30]	A to D	A to D
C#CCN1C(=O)c2nn(-c3cccnc3)cc2Oc2cc(C)ccc21 [1-32]	A to D	A to D
Cc1ccc2c(c1)Oc1cn(-c3cccnc3)nc1C(=O)N2CC#N [1-33]	A to D	A to D
CN1C(=O)c2nn(-c3cccnc3)cc2Oc2cc(C(F)(F)F)ccc21 [1-34]	A to D	A to D
C#CCN1C(=O)c2nn(-c3cccnc3)cc2Oc2cc(C(F)(F)F)ccc21 [1-35]	A to D	A to D
N#CCN1C(=O)c2nn(-c3cccnc3)cc2Oc2cc(C(F)(F)F)ccc21 [1-36]	A to D	A to D
O=C1Nc2cc(C(F)(F)F)ccc2Oc2cn(-c3cccnc3)nc21 [1-37]	A to D	A to D
CN1C(=O)c2nn(-c3cccnc3)cc2Oc2ccc(C(F)(F)F)cc21 [1-38]	A to D	A to D
COc1ccc2c(c1)Oc1cn(-c3cccnc3)nc1C(=O)N2 [1-39]	A to D	A to D
COc1ccc2c(c1)Oc1cn(-c3cccnc3)nc1C(=O)N2C [1-40]	A to D	A to D
C#CCN1C(=O)c2nn(-c3cccnc3)cc2Oc2cc(OC)ccc21 [1-41]	A to D	A to D
COc1ccc2c(c1)Oc1cn(-c3cccnc3)nc1C(=O)N2CC#N [1-42]	A to D	A to D
Nc1ccc2c(c1)NC(=O)c1nn(-c3cccnc3)cc1O2 [1-44]	A to D	A to D

Compound	Preventive value, judgment [1]	Corrected insect mortality, judgment [2]
CN1C(=O)c2nn(-c3cccnc3)cc2Oc2ccc(N)cc21 [1-45]	A to D	A to D
CN(C)c1ccc2c(c1)N(C)C(=O)c1nn(-c3cccnc3)cc1O2 [1-46]	A to D	A to D
CN1C(=O)c2nn(-c3cccnc3)cc2Oc2cc(C#N)ccc21 [1-47]	A to D	A to D
C#CCN1C(=O)c2nn(-c3cccnc3)cc2Oc2cc(C#N)ccc21 [1-48]	A to D	A to D
N#Cc1ccc2c(c1)NC(=O)c1nn(-c3cccnc3)cc1O2 [1-50]	A to D	A to D
CCCCN1C(=O)c2nn(-c3cccnc3)cc2Oc2ccccc21 [1-51]	A to D	A to D
CCCCCCN1C(=O)c2nn(-c3cccnc3)cc2Oc2ccccc21 [1-52]	A to D	A to D
CCCCCCCCN1C(=O)c2nn(-c3cccnc3)cc2Oc2ccccc21 [1-53]	A to D	A to D
C=CCN1C(=O)c2nn(-c3cccnc3)cc2Oc2ccccc21 [1-55]	A to D	A to D
COc1ccc(CN2C(=O)c3nn(-c4cccnc4)cc3Oc3ccccc32)cc1 [1-56]	A to D	A to D
O=C1c2nn(-c3cccnc3)cc2Oc2ccccc2N1Cc1ccccn1 [1-57]	A to D	A to D
O=C1c2nn(-c3cccnc3)cc2Oc2ccccc2N1Cc1cccnc1 [1-58]	A to D	A to D
O=C1c2nn(-c3cccnc3)cc2Oc2ccccc2N1CCc1ccccc1 [1-62]	A to D	A to D
COCN1C(=O)c2nn(-c3cccnc3)cc2Oc2ccccc21 [1-67]	A to D	A to D
COCCN1C(=O)c2nn(-c3cccnc3)cc2Oc2ccccc21 [1-68]	A to D	A to D
O=C1c2nn(-c3cccnc3)cc2Oc2ccccc2N1CCN1CCCCC1 [1-70]	A to D	A to D
O=C1c2nn(-c3cccnc3)cc2Oc2ccccc2N1CCN1CCOCC1 [1-71]	A to D	A to D
CC(=O)N1C(=O)c2nn(-c3cccnc3)cc2Oc2ccccc21 [1-73]	A to D	A to D
COC(=O)CN1C(=O)c2nn(-c3cccnc3)cc2Oc2ccccc21 [1-74]	A to D	A to D
CC(C)(C)OC(=O)CN1C(=O)c2nn(-c3cccnc3)cc2Oc2ccccc21 [1-75]	A to D	A to D

Compound	Preventive value, judgment [1]	Corrected insect mortality, judgment [2]
O=C(CN1C(=O)c2nn(-c3cccnc3)cc2Oc2ccccc21)c1ccc(Cl)cc1 [1-76]	A to D	A to D
CC(C#N)N1C(=O)c2nn(-c3cccnc3)cc2Oc2ccccc21 (stereo not drawn) [1-77]	A to D	A to D
CN1C(=O)c2nn(-c3cncnc3)cc2Oc2ccccc21 [1-79]	A to D	A to D
CN1C(=O)c2nn(-c3cncc(F)c3)cc2Oc2cc(F)ccc21 [1-80]	A to D	A to D
C#CCN1C(=O)c2nn(-c3cncc(F)c3)cc2Oc2cc(F)ccc21 [1-81]	A to D	A to D
S=C1Nc2ccccc2Oc2cn(-c3cccnc3)nc21 [2-1]	A to D	A to D
Fc1ccc2c(c1)NC(=S)c1nn(-c3cccnc3)cc1O2 [2-5]	A to D	A to D
c1cncc(-n2cc3c(n2)CNc2ccccc2O3)c1 [3-1]	A to D	A to D
CN1C(=O)c2nn(-c3cccnc3)cc2Oc2ncc(C(F)(F)F)cc21 [4-10]	A to D	A to D
CN1C(=O)c2nn(-c3cccnc3)cc2Oc2cnccc21 [5-2]	A to D	A to D
O=C1NC=COc2cn(-c3cccnc3)nc21 [7-1]	A to D	A to D
CN1C=COc2cn(-c3cccnc3)nc2C1=O [7-2]	A to D	A to D
CSCN1C(=O)c2nn(-c3cccnc3)cc2Oc2ccccc21 [8-2]	A to D	A to D
CS(=O)(=O)CN1C(=O)c2nn(-c3cccnc3)cc2Oc2ccccc21 [8-4]	A to D	A to D
COC(CN1C(=O)c2nn(-c3cccnc3)cc2Oc2ccccc21)OC [8-10]	A to D	A to D
O=CN1C(=O)c2nn(-c3cccnc3)cc2Oc2ccccc21 [8-12]	A to D	A to D
COC(=O)N1C(=O)c2nn(-c3cccnc3)cc2Oc2ccccc21 [8-13]	A to D	A to D
O=C1c2nn(-c3cccnc3)cc2Oc2ccccc2N1CC(F)(F)C(F)(F)F [8-20]	A to D	A to D
CSCN1C(=O)c2nn(-c3cccnc3)cc2Oc2cc(F)ccc21 [8-24]	A to D	A to D
COCN1C(=O)c2nn(-c3cccnc3)cc2Oc2cc(F)ccc21 [8-25]	A to D	A to D
